In brackets after ≈: the same amount, converted by molar mass. Entries after “also recorded” stand apart in the source; their conditions may differ. Read-outs that look alike come from different tables or passages of the source.
Legend:
[1] = tested on: MDA-MB231 cells; settings: 100, 200, 400 or 800 μM, cultured 24 hours, FIG. 3
Description: After seeding MDA-MB231 cells into a 24-well plate with 1×10^4 cells/well, the cells were stabilized by culturing for 24 hours.
After the culturing, the cells were incubated for 4 hours with an MTT tetrazolium reagent. Then, cell proliferation was investigated by measuring the absorbance of reduced MTT formazan (3-(4,5-dimethylthiazol-2-yl)-2,5-diphenyl-tetrazolium bromide) at 595 nm. Docetaxel (10 μM), which is currently used as an anticancer agent, was used as a control group.

[2] = tested on: Escherichia coli (ATCC 25922); assay: Minimum inhibitory concentration (MIC) assay on Mueller-Hinton agar, CLSI guidelines; type: cell-based; settings: for antibiotic susceptibility / antibiotic effect (in words): E. coli; for MIC: E.coli (ATCC 25922), Mueller-Hinton agar
From the text: (§1) Staphylococcus aureus (ATCC 29213) and Escherichia coli (ATCC 25922) were used.

[3] = tested on: Staphylococcus aureus (ATCC 29213); assay: as above; type: cell-based; settings: for antibiotic susceptibility / antibiotic effect (in words): S. aureus; for MIC: S.aureus (ATCC 29213), Mueller-Hinton agar
From the text: as §1

[4] = tested on: MDA-MB231 cells; assay: Cancer cell migration assay, 8 μm insert, crystal violet staining; type: cell-based; settings: 100, 200, 400 or 800 μM, 5 hours, FIG. 5
[5] = tested on: MDA-MB231 breast cancer cells; assay: Exosome secretion inhibition, exosomes counted with Nano-sight LM10; type: cell-based; settings: 100 μM, serum-free medium, 24 hours, FIG. 4
Description: MDA-MB231 breast cancer cells were cultured on a 150-mm culture plate. 24 hours later, after removing the medium and washing with PBS, the cells were treated with each compound at 100 μM together with a serum-free medium and cultured for 24 hours. After discarding the medium and centrifuging at 300×g for 3 minutes, 2,500×g for 15 minutes […] 10,000×g for 30 minutes, the supernatant was transferred to a fresh tube.
After filtering through a 200-nm syringe filter, exosome pellets were obtained by centrifuging at 120,000×g for 90 minutes. After redispersing the exosome pellets using PBS, the number of exosomes secreted by the cells was counted using Nano-sight LM10 (Malvern).

Compound: CC(=O)Nc1ccc(S(=O)(=O)N(C(C)=O)c2onc(C)c2C)cc1 [SFX-DAS, sulfisoxazole-N^1&N^4-dual acetyl]
- cytotoxicity (MTT, absorbance at 595 nm) [1]: exhibit cytotoxicity at 100 μM or higher
- antibiotic susceptibility / antibiotic effect (in words) [2]: no antibiotic susceptibility at all; also recorded: completely disappeared
- MIC [2]: >512 µg/mL
- antibiotic susceptibility / antibiotic effect (in words) [3]: no antibiotic susceptibility at all; also recorded: completely disappeared
- MIC [3]: >512 µg/mL
- inhibition of migration of the cancer cells [4]: inhibited in a concentration-dependent manner
- inhibition of secretion of exosomes [5]: strongly inhibit the secretion of exosomes

Compound: CC(=O)N(c1onc(C)c1C)S(=O)(=O)c1ccc(N)cc1 [SFX-N1AS, sulfisoxazole-N^1-acetyl]
- antibiotic susceptibility / antibiotic effect (in words) [2]: decreased antibiotic susceptibility; also recorded: reduced significantly
- MIC [2]: 128 µg/mL (≈ 414 µM)
- antibiotic susceptibility / antibiotic effect (in words) [3]: decreased antibiotic susceptibility; also recorded: reduced significantly
- MIC [3]: 512 µg/mL (≈ 1660 µM)
- inhibition of migration of the cancer cells [4]: inhibited in a concentration-dependent manner
- inhibition of secretion of exosomes [5]: strongly inhibit the secretion of exosomes

Compound: CC(=O)Nc1ccc(S(=O)(=O)Nc2onc(C)c2C)cc1 [SFX-N4AS, sulfisoxazole-N^4-acetyl]
- antibiotic susceptibility / antibiotic effect (in words) [2]: no antibiotic susceptibility at all; also recorded: completely disappeared
- MIC [2]: >512 µg/mL
- antibiotic susceptibility / antibiotic effect (in words) [3]: no antibiotic susceptibility at all; also recorded: completely disappeared
- MIC [3]: >512 µg/mL
- inhibition of migration of the cancer cells [4]: inhibited in a concentration-dependent manner
- inhibition of secretion of exosomes [5]: strongly inhibit the secretion of exosomes

Compound: Cc1noc(NS(=O)(=O)c2ccc(N)cc2)c1C [SFX-WT, sulfisoxazole, reference compound]
- antibiotic susceptibility / antibiotic effect (in words) [2]: strong antibiotic susceptibility
- MIC ([2]; Escherichia coli, ATCC25922, read-out: MIC): 16 µg/mL (≈ 59.9 µM)
- antibiotic susceptibility / antibiotic effect (in words) [3]: strong antibiotic susceptibility
- MIC ([3]; Staphylococcus aureus, ATCC29213, read-out: MIC): 32 µg/mL (≈ 120 µM)
- inhibition of migration of the cancer cells [4]: inhibited in a concentration-dependent manner
